Reference: ChEMBL document CHEMBL2311250 (Bioorg Med Chem Lett, 2013)
≈ marks a conversion by molar mass, not a printed value.

What was measured:
[1] = target: Tyrosine-protein kinase Lck (Homo sapiens, UniProt P06239); assay: Inhibition of LCK (unknown origin) in presence of ATP
[2] = target: Tyrosine-protein kinase ABL1 (Homo sapiens, UniProt P00519); assay: Inhibition of ABL (unknown origin) in presence of ATP
[3] = Oral bioavailability in Sprague-Dawley rat at 5 mg/kg; assay type: ADME, organism-based; details: in vivo
[4] = Cmax in Sprague-Dawley rat at 1 mg/kg, iv and 5 mg/kg, po; assay type: ADME, organism-based; details: in vivo
[5] = AUC in Sprague-Dawley rat at 1 mg/kg, iv and 5 mg/kg, po; assay type: ADME, organism-based; details: plasma
[6] = Clearance in Sprague-Dawley rat at 1 mg/kg, iv and 5 mg/kg, po; assay type: ADME, organism-based; details: in vivo
[7] = Volume of distribution at steady state in Sprague-Dawley rat at 1 mg/kg, iv and 5 mg/kg, po; assay type: ADME, organism-based; details: in vivo, read-out: Vdss
[8] = Half life in Sprague-Dawley rat at 1 mg/kg, iv and 5 mg/kg, po; assay type: ADME, organism-based; details: in vivo
[9] = Aqueous solubility of the compound at ph 6.5; assay type: physicochemical
[10] = Permeability of the compound by PAMPA; assay type: ADME; details: read-out: permeability
hERG (KCNH2) = hERG (KCNH2) (Homo sapiens, UniProt Q12809); assay: Displacement of [3H]dofetilide from human ERG at 10 uM; details: probe [3H]dofetilide
[11] = Half life in human liver microsomes; assay type: ADME, Microsome
[12] = Half life in rat liver microsomes; assay type: ADME, Microsome
Platelet = assay: Inhibition of platelet aggregation (unknown origin); assay type: functional, cell-based
[13] = target: T1, Tyrosine-protein kinase receptor TYRO3 (Homo sapiens, UniProt Q06418); assay: Inhibition of Sky (unknown origin) by ELISA kinase assay in presence of 60 uM ATP
T1 sequence (Q06418 whole entry): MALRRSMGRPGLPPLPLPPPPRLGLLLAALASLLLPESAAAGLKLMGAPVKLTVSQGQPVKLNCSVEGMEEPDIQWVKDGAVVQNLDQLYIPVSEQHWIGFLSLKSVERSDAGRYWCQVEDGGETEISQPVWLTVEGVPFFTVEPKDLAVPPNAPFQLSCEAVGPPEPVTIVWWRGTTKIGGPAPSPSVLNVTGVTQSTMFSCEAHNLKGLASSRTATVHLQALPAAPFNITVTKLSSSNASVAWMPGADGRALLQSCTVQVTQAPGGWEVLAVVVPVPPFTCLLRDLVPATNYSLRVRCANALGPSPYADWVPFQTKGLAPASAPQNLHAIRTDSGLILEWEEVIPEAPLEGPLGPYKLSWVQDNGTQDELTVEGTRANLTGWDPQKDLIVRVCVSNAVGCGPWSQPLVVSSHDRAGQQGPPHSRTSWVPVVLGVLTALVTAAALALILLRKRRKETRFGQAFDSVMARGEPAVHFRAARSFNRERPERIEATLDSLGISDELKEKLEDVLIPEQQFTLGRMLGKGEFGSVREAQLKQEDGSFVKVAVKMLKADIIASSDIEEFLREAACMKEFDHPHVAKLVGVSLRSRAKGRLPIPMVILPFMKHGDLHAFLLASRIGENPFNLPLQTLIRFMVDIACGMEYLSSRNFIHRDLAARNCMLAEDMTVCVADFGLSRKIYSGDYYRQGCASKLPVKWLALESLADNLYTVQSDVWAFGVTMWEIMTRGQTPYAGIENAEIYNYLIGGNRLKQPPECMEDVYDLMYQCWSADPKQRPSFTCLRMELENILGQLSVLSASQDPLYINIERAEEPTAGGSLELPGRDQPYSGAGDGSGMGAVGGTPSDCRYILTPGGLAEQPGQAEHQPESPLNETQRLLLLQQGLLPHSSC

Insulin receptor = Insulin receptor (Homo sapiens, UniProt P06213); assay: Inhibition of INSR (unknown origin) in presence of ATP
[14] = target: Fibroblast growth factor receptor 1 (Homo sapiens, UniProt P11362); assay: Inhibition of FGFR1 (unknown origin) in presence of ATP
[15] = target: Casein kinase I isoform delta (Homo sapiens, UniProt P48730); assay: Inhibition of CK1-delta (unknown origin) in presence of ATP
[16] = target: RAC-alpha serine/threonine-protein kinase (Homo sapiens, UniProt P31749); assay: Inhibition of AKT1 (unknown origin) in presence of ATP
RAC-alpha serine/threonine-protein kinase, sequence (P31749 whole entry): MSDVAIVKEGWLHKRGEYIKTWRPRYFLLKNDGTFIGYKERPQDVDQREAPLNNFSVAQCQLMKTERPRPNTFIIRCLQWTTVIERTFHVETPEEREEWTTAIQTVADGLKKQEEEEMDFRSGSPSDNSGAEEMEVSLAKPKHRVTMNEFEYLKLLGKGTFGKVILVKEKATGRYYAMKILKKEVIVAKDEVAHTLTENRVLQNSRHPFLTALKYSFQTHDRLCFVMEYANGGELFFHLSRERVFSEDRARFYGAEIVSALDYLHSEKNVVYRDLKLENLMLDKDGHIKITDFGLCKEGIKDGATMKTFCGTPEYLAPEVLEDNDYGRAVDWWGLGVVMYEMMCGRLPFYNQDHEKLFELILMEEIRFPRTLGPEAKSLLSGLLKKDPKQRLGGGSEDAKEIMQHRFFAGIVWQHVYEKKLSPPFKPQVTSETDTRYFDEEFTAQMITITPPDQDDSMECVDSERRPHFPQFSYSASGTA

hERG (KCNH2), sequence (Q12809 whole entry): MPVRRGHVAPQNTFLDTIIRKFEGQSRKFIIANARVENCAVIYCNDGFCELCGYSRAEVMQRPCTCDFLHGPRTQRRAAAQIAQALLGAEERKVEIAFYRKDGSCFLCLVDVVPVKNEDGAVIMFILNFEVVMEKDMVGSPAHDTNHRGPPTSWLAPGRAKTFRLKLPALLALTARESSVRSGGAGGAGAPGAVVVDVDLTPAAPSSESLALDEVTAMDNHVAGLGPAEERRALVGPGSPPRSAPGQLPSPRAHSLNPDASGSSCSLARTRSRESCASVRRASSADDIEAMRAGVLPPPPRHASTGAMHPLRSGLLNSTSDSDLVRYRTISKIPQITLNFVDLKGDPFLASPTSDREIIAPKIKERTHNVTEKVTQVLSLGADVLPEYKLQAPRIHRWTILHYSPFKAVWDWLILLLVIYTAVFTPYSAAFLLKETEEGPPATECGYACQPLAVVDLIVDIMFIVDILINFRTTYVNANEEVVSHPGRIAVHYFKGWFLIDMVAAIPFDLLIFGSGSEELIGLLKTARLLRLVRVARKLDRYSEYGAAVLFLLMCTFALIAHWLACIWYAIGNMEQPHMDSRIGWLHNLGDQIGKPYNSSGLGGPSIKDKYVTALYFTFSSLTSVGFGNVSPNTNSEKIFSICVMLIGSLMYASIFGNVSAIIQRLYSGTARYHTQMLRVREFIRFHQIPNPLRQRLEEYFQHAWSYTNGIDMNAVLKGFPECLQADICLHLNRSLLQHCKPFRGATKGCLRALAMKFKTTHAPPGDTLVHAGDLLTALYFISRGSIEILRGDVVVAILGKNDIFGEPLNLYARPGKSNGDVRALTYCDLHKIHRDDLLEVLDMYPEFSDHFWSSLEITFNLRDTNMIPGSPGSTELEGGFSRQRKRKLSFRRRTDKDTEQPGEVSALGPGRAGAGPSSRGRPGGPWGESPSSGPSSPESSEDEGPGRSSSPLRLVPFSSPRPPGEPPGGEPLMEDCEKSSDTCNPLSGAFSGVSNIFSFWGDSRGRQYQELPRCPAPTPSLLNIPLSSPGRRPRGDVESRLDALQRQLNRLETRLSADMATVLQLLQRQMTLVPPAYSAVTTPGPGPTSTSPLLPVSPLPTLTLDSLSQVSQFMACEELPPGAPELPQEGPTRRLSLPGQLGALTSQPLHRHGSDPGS
Tyrosine-protein kinase ABL1, sequence (P00519 whole entry): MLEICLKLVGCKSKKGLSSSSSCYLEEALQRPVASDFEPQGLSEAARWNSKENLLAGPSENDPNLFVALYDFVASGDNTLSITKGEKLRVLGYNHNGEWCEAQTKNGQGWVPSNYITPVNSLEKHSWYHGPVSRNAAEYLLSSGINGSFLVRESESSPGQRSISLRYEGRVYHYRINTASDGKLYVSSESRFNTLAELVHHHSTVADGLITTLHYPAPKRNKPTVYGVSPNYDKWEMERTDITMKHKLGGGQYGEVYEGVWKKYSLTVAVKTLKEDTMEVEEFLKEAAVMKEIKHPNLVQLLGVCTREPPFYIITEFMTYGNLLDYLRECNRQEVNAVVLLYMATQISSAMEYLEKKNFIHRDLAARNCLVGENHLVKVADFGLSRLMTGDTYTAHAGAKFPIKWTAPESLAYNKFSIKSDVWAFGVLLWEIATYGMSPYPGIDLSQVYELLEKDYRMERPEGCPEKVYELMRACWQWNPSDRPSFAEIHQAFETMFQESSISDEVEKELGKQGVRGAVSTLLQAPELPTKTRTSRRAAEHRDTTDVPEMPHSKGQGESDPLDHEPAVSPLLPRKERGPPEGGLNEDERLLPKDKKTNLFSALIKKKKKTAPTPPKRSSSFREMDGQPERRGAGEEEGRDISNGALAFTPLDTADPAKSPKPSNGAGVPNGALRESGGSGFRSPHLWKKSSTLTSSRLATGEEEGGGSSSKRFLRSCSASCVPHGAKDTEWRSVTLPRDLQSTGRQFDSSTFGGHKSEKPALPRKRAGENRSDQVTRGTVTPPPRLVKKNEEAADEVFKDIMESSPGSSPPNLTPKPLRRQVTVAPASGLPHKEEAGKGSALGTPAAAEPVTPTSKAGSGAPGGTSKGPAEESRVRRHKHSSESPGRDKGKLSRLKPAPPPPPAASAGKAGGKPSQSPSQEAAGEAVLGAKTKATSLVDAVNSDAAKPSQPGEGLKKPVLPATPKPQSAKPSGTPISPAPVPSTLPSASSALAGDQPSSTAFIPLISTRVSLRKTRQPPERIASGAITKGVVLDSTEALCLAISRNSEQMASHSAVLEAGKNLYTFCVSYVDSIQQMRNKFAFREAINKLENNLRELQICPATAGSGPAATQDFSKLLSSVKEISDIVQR
Tyrosine-protein kinase Lck, sequence (P06239 whole entry): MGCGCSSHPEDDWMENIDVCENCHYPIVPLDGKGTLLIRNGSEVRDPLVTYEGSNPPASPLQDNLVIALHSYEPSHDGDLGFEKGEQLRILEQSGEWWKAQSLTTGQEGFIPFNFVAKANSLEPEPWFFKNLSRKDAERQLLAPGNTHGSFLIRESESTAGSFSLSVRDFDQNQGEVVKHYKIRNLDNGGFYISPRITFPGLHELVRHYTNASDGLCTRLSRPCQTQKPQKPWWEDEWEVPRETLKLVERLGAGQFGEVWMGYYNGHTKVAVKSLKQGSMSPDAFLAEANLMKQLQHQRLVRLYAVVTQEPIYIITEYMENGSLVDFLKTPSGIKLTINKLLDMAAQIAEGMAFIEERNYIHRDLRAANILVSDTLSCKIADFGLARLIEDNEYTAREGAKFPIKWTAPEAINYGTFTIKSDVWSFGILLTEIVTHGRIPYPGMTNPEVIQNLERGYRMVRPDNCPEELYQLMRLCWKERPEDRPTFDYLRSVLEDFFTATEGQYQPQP
Fibroblast growth factor receptor 1, sequence (P11362 whole entry, canonical isoform): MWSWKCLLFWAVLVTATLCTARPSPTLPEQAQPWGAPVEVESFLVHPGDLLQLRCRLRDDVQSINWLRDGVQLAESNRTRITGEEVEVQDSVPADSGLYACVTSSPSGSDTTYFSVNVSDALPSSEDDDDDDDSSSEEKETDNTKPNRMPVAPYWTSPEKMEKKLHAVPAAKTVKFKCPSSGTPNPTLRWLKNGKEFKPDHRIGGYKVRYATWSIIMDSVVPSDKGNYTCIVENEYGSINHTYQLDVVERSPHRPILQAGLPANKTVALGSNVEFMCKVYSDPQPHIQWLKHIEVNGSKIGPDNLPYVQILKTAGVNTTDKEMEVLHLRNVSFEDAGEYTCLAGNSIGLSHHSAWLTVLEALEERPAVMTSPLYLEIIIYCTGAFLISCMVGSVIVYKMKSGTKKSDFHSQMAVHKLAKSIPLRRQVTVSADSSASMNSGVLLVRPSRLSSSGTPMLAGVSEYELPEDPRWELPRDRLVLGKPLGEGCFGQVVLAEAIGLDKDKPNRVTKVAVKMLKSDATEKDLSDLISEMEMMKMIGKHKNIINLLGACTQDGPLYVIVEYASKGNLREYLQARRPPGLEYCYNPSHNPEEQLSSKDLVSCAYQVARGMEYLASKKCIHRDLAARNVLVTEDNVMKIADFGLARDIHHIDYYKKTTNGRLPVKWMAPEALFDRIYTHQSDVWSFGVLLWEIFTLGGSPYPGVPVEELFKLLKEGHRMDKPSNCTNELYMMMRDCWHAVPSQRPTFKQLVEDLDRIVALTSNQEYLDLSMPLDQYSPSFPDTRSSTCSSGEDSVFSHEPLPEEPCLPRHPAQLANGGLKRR
Casein kinase I isoform delta, sequence (P48730 whole entry, canonical isoform): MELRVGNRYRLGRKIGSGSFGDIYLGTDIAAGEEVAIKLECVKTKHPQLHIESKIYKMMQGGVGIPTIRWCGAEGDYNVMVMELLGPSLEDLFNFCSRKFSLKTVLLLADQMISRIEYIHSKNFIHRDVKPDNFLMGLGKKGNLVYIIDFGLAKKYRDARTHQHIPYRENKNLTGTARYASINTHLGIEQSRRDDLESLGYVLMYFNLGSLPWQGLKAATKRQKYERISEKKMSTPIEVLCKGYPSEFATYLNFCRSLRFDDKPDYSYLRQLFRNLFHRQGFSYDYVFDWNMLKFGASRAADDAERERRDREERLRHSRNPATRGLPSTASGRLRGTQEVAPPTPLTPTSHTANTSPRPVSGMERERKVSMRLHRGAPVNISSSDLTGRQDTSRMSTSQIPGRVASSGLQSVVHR

Structure (SMILES) | IC50 [1] [µM] | IC50 [2] [µM] | bioavailability [3] [%] | Cmax [4] [ng/mL] | AUC [5] [ng·h/mL] | clearance [6] [mL/min/kg] | Vd [7] [L/kg] | half-life [8] [min] | solubility [9] [µM] | Papp [10] [×10⁻⁶ cm/s] | inhibition at 10 µM (hERG (KCNH2)) [%] | half-life [11] [min] | half-life [12] [min] | IC50 (Platelet) [µM] | IC50 [13] [µM] | IC50 (Insulin receptor) [µM] | IC50 [14] [µM] | IC50 [15] [µM] | IC50 [16] [µM]
COc1ccccc1CNc1ncc(C(=O)NC2CCN(C)CC2)c(NC2CCCC2)n1 | 15 | 21.1 | 41 | 74 | 302 | 73 | 18 | 210 | 80 (≈ 35.1 µg/mL) | 1.2 | 27 | 34 | 56 | 8.8 | 0.52 |  |  |  | 
CN1CCC(NC(=O)c2cnc(NCc3cc(Cl)ccc3Cl)nc2NC2CCCC2)CC1 | 1.36 | 3.17 | 32 | 35 | 680 | 40 | 25 | 480 | 7.8 (≈ 3.72 µg/mL) | 0.02 | 47 | 14 | 60 | 7.2 | 0.27 | 18.6 | 12.5 | 2.39 | 18.6
CN1CCC(NC(=O)c2cnc(NCc3cc(Cl)ccc3Cl)nc2NC2CCNCC2)CC1 |  |  | 0 | 25 |  | 40 | 0.4 | 12 | 200 (≈ 98.5 µg/mL) | < 0.1 | > 50 | 38 | 60 | 8.5 | 0.19 |  |  |  | 
